The results in this text go back to ChEMBL document CHEMBL3822442, “Synthesis and Pharmacological Characterization of Novel Glucagon-like Peptide-2 (GLP-2) Analogues with Low Systemic Clearance” (J Med Chem, 2016).

Active and inactive are the calls of the source. The rule behind the calls is not given here. Some results are limits rather than exact numbers.

What is called EC50 is the concentration that produces a half-maximal response. Low readings indicate an effect from little substance, high ones a need for much substance. Usually clearance stands for the volume of plasma or blood freed of the substance per unit of time.

For one series, the system named is HEK293. Nature of the series: Selectivity ratio of EC50 for human GLP1R expressed in HEK293 cells to EC50 for human GLP2R expressed in HEK293. It counts as cell-based.
Series [1] deals with T1, Glucagon-like peptide 2 receptor (Homo sapiens, UniProt O95838).
T1 sequence (O95838 whole entry): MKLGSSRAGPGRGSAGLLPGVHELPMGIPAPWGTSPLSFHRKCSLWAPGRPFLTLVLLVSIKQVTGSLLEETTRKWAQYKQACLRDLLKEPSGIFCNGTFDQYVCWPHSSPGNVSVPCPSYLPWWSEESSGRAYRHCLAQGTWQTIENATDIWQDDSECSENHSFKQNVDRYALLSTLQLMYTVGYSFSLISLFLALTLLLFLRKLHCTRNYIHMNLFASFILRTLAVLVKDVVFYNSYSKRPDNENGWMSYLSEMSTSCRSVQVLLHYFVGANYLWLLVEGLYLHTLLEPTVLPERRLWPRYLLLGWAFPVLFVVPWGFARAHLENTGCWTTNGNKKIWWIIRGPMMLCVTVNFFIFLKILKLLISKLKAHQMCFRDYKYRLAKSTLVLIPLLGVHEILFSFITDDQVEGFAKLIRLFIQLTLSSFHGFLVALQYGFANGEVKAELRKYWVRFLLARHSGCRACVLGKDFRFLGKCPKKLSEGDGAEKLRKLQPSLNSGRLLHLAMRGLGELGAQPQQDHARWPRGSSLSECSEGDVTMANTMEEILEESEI
Nature of the series: Agonist activity at human GLP2R expressed in HEK293 cells after 5 hrs by luciferase reporter gene assay. It counts as cell-based.

Series [2] addresses Glucagon-like peptide 1 receptor (Homo sapiens, UniProt P43220). Nature of the series: Agonist activity at human GLP1R expressed in HEK293 cells after 5 hrs by luciferase reporter gene assay. It is filed as cell-based. A general note: A reporter such as luciferase makes a cellular process visible.
Series [3] can be described thus: Systemic clearance in Sprague-Dawley rat at 0.2 mg/kg, iv through cassette dosing measured up to 300 mins by LC/MS/MS analysis. It counts as ADME, organism-based. Particulars: in vivo.
The target of series [4] is Glucagon receptor (Homo sapiens) (UniProt P47871). Nature of the series: Agonist activity at human GCGR expressed in HEK293 cells after 5 hrs by luciferase reporter gene assay. It counts as cell-based.
Sequence of Glucagon receptor (Homo sapiens) (P47871 whole entry): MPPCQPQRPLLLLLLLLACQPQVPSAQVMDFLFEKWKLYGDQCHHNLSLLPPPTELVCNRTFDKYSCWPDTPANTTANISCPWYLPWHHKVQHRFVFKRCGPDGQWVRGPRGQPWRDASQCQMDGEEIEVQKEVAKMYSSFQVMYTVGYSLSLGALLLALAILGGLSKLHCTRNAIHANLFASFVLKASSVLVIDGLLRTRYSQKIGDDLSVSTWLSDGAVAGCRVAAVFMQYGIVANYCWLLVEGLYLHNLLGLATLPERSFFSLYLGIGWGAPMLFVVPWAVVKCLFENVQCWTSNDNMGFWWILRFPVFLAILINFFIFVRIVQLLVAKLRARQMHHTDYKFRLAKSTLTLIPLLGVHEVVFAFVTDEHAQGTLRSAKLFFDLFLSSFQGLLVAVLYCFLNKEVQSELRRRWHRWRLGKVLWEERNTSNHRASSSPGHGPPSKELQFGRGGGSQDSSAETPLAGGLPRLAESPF

Sequence of Glucagon-like peptide 1 receptor (P43220 whole entry): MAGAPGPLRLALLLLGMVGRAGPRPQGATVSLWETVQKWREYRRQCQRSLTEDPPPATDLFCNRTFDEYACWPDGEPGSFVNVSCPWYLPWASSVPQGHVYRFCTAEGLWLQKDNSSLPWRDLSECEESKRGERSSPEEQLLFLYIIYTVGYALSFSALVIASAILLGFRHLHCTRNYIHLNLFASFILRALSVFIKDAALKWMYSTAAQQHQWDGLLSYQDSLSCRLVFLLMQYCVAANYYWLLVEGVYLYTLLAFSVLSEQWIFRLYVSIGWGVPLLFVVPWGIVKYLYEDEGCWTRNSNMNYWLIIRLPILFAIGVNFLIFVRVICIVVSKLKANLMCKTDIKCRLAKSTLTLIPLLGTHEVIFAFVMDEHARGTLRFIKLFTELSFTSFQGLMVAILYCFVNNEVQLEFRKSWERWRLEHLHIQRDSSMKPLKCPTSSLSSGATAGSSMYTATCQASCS

For the compound `CCCCC(NC(=O)[C@H](CCC(=O)O)NC(=O)[C@H](CC(=O)O)NC(=O)[C@H](CO)NC(=O)[C@H](Cc1ccccc1)NC(=O)[C@H](CO)NC(=O)CNC(=O)[C@H](CC(=O)O)NC(=O)CNC(=O)[C@@H](N)Cc1cnc[nH]1)C(=O)N[C@H](Cc1ccccc1)C(=O)N[C@H](C(=O)N[C@H](C(=O)N[C@@H](CC(C)C)C(=O)N[C@@H](CC(=O)O)C(=O)N[C@@H](CC(C)C)C(=O)N[C@@H](CC(C)C)C(=O)N[C@@H](C)C(=O)N[C@@H](C)C(=O)N[C@@H](CCCNC(=N)N)C(=O)N[C@@H](CC(=O)O)C(=O)N[C@@H](Cc1ccccc1)C(=O)N[C@H](C(=O)N[C@@H](CC(N)=O)C(=O)N[C@@H](Cc1c[nH]c2ccccc12)C(=O)N[C@@H](CC(C)C)C(=O)N[C@H](C(=O)N[C@@H](CCC(N)=O)C(=O)N[C@H](C(=O)N[C@@H](CCCCN)C(=O)N[C@H](C(=O)N[C@H](C(=O)N[C@@H](CC(=O)O)C(N)=O)[C@@H](C)O)[C@@H](C)CC)[C@@H](C)O)[C@@H](C)CC)[C@@H](C)CC)[C@@H](C)CC)[C@@H](C)O` (some centres not stated), in the series with HEK293, the Ratio EC50 is greater than 33000.

Turning to `CCCCC(NC(=O)[C@H](CCC(=O)O)NC(=O)[C@H](CC(=O)O)NC(=O)[C@H](CO)NC(=O)[C@H](Cc1ccccc1)NC(=O)[C@H](CO)NC(=O)CNC(=O)[C@H](CC(=O)O)NC(=O)CNC(=O)[C@@H](N)Cc1cnc[nH]1)C(=O)N[C@H](Cc1ccccc1)C(=O)N[C@H](C(=O)N[C@H](C(=O)N[C@@H](CC(C)C)C(=O)N[C@@H](CC(=O)O)C(=O)N[C@@H](CC(C)C)C(=O)N[C@@H](CC(C)C)C(=O)N[C@@H](C)C(=O)N[C@@H](C)C(=O)N[C@@H](CCCNC(=N)N)C(=O)N[C@@H](CC(=O)O)C(=O)N[C@@H](Cc1ccccc1)C(=O)N[C@H](C(=O)N[C@@H](CC(N)=O)C(=O)N[C@@H](Cc1c[nH]c2ccccc12)C(=O)N[C@@H](CC(C)C)C(=O)N[C@H](C(=O)N[C@@H](CCC(N)=O)C(=O)N[C@H](C(=O)N[C@@H](CCCCN)C(N)=O)[C@@H](C)O)[C@@H](C)CC)[C@@H](C)CC)[C@@H](C)CC)[C@@H](C)O` (some centres not stated), in the series on HEK293, the Ratio EC50 is greater than 12000. On to `CCCC[C@H](NC(=O)[C@H](CCC(=O)O)NC(=O)[C@H](CC(=O)O)NC(=O)[C@H](CO)NC(=O)[C@H](Cc1ccccc1)NC(=O)[C@H](CO)NC(=O)CNC(=O)[C@H](CC(=O)O)NC(=O)CNC(=O)[C@@H](N)Cc1cnc[nH]1)C(=O)N[C@@H](CC(N)=O)C(=O)N[C@H](C(=O)N[C@H](C(=O)N[C@@H](CC(C)C)C(=O)N[C@@H](CC(=O)O)C(=O)N[C@@H](Cc1ccc(Cl)cc1)C(=O)N[C@@H](CC(C)C)C(=O)N[C@@H](C)C(=O)N[C@@H](C)C(=O)N[C@@H](CCCNC(=N)N)C(=O)N[C@@H](CC(=O)O)C(=O)N[C@@H](Cc1ccccc1)C(=O)N[C@H](C(=O)N[C@@H](CC(N)=O)C(=O)N[C@@H](Cc1c[nH]c2ccccc12)C(=O)N[C@@H](CC(C)C)C(=O)N[C@H](C(=O)N[C@@H](CCC(N)=O)C(=O)N[C@H](C(=O)N[C@@H](CCCCN)C(N)=O)[C@@H](C)O)[C@@H](C)CC)[C@@H](C)CC)[C@@H](C)CC)[C@@H](C)O`, for which the half-maximal effective concentration (EC50) in series [1] is 0.22 nM; in series [2], greater than 1000 nM. The same compound had a clearance in series [3] of 0.67 mL/min/kg. For the compound `CCCCC(NC(=O)[C@H](CCC(=O)O)NC(=O)[C@H](CC(=O)O)NC(=O)[C@H](CO)NC(=O)[C@H](Cc1ccccc1)NC(=O)[C@H](CO)NC(=O)CNC(=O)[C@H](CC(=O)O)NC(=O)CNC(=O)[C@@H](N)Cc1cnc[nH]1)C(=O)N[C@H](Cc1ccccc1)C(=O)N[C@H](C(=O)N[C@H](C(=O)N[C@@H](CC(C)C)C(=O)N[C@@H](CC(=O)O)C(=O)N[C@@H](CC(C)C)C(=O)N[C@@H](CC(C)C)C(=O)N[C@@H](C)C(=O)N[C@@H](C)C(=O)N[C@@H](CCCNC(=N)N)C(=O)N[C@@H](CC(=O)O)C(=O)N[C@@H](Cc1ccccc1)C(=O)N[C@H](C(=O)N[C@@H](CC(N)=O)C(=O)N[C@@H](Cc1c[nH]c2ccccc12)C(=O)N[C@@H](CC(C)C)C(=O)N[C@H](C(=O)N[C@@H](CCC(N)=O)C(=O)N[C@H](C(=O)N[C@@H](CCCCN)C(=O)N[C@H](C(=O)N[C@H](C(=O)N[C@@H](CC(=O)O)C(=O)O)[C@@H](C)O)[C@@H](C)CC)[C@@H](C)O)[C@@H](C)CC)[C@@H](C)CC)[C@@H](C)CC)[C@@H](C)O` (some centres not stated), the Ratio EC50 in the series on HEK293 is greater than 33000. On the same count and under the same terms, next, `CCCCC(NC(=O)[C@H](CCC(=O)O)NC(=O)[C@H](CC(=O)O)NC(=O)[C@H](CO)NC(=O)[C@H](Cc1ccccc1)NC(=O)[C@H](CO)NC(=O)CNC(=O)[C@H](CC(=O)O)NC(=O)CNC(=O)[C@@H](N)Cc1cnc[nH]1)C(=O)N[C@H](Cc1ccccc1)C(=O)N[C@H](C(=O)N[C@H](C(=O)N[C@@H](CC(C)C)C(=O)N[C@@H](CC(=O)O)C(=O)N[C@@H](CC(C)C)C(=O)N[C@@H](CC(C)C)C(=O)N[C@@H](C)C(=O)N[C@@H](C)C(=O)N[C@@H](CCCNC(=N)N)C(=O)N[C@@H](CC(=O)O)C(=O)N[C@@H](Cc1ccccc1)C(=O)N[C@H](C(=O)N[C@@H](CC(N)=O)C(=O)N[C@@H](Cc1c[nH]c2ccccc12)C(=O)N[C@@H](CC(C)C)C(=O)N[C@H](C(=O)N[C@@H](CCC(N)=O)C(=O)N[C@H](C(=O)N[C@@H](CCCCN)C(=O)N[C@H](C(=O)N[C@H](C(=O)N[C@@H](CC(=O)O)C(=O)NCC)[C@@H](C)O)[C@@H](C)CC)[C@@H](C)O)[C@@H](C)CC)[C@@H](C)CC)[C@@H](C)CC)[C@@H](C)O` (some centres not stated): greater than 20000; `CCCCC(NC(=O)[C@H](CCC(=O)O)NC(=O)[C@H](CC(=O)O)NC(=O)[C@H](CO)NC(=O)[C@H](Cc1ccccc1)NC(=O)[C@H](CO)NC(=O)CNC(=O)[C@H](CC(=O)O)NC(=O)CNC(=O)[C@@H](N)Cc1cnc[nH]1)C(=O)N[C@H](Cc1cccs1)C(=O)N[C@H](C(=O)N[C@H](C(=O)N[C@@H](CC(C)C)C(=O)N[C@@H](CC(=O)O)C(=O)N[C@@H](Cc1ccccc1)C(=O)N[C@@H](CC(C)C)C(=O)N[C@@H](C)C(=O)N[C@@H](C)C(=O)N[C@@H](CCCNC(=N)N)C(=O)N[C@@H](CC(=O)O)C(=O)N[C@@H](Cc1ccccc1)C(=O)N[C@H](C(=O)N[C@@H](CC(N)=O)C(=O)N[C@@H](Cc1c[nH]c2ccccc12)C(=O)N[C@@H](CC(C)C)C(=O)N[C@H](C(=O)N[C@@H](CCC(N)=O)C(=O)N[C@H](C(=O)N[C@@H](CCCCN)C(N)=O)[C@@H](C)O)[C@@H](C)CC)[C@@H](C)CC)[C@@H](C)CC)[C@@H](C)O` (some centres not stated): greater than 12000. Still for that read-out and setting: then `CCCCC(NC(=O)[C@H](CCC(=O)O)NC(=O)[C@H](CC(=O)O)NC(=O)[C@H](CO)NC(=O)[C@H](Cc1ccccc1)NC(=O)[C@H](CO)NC(=O)CNC(=O)[C@H](CC(=O)O)NC(=O)CNC(=O)[C@@H](N)Cc1cnc[nH]1)C(=O)N[C@H](Cc1ccccc1)C(=O)N[C@H](C(=O)N[C@H](C(=O)N[C@@H](CC(C)C)C(=O)N[C@@H](CC(=O)O)C(=O)N[C@@H](CC(C)C)C(=O)N[C@@H](CC(C)C)C(=O)N[C@@H](C)C(=O)N[C@@H](C)C(=O)N[C@@H](CCCNC(=N)N)C(=O)N[C@@H](CC(=O)O)C(=O)N[C@@H](Cc1ccccc1)C(=O)N[C@H](C(=O)N[C@@H](CC(N)=O)C(=O)N[C@@H](Cc1c[nH]c2ccccc12)C(=O)N[C@@H](CC(C)C)C(=O)N[C@H](C(=O)N[C@@H](CCC(N)=O)C(=O)N[C@H](C(=O)N[C@@H](CCCCN)C(=O)N[C@H](C(=O)N[C@H](C(=O)N[C@@H](CC(=O)O)C(=O)NCCOCCOCCOCCOCCC(N)=O)[C@@H](C)O)[C@@H](C)CC)[C@@H](C)O)[C@@H](C)CC)[C@@H](C)CC)[C@@H](C)CC)[C@@H](C)O` (some centres not stated), with greater than 33000. For the compound `CCCCC(NC(=O)[C@H](CCC(=O)O)NC(=O)[C@H](CC(=O)O)NC(=O)[C@H](CO)NC(=O)[C@H](Cc1ccccc1)NC(=O)[C@H](CO)NC(=O)CNC(=O)[C@H](CC(=O)O)NC(=O)CNC(=O)[C@@H](N)Cc1cnc[nH]1)C(=O)N[C@H](CC(C)C)C(=O)N[C@H](C(=O)N[C@H](C(=O)N[C@@H](CC(C)C)C(=O)N[C@@H](CC(=O)O)C(=O)N[C@@H](CC(N)=O)C(=O)N[C@@H](CC(C)C)C(=O)N[C@@H](C)C(=O)N[C@@H](C)C(=O)N[C@@H](CCCNC(=N)N)C(=O)N[C@@H](CC(=O)O)C(=O)N[C@@H](Cc1ccccc1)C(=O)N[C@H](C(=O)N[C@@H](CC(N)=O)C(=O)N[C@@H](Cc1c[nH]c2ccccc12)C(=O)N[C@@H](CC(C)C)C(=O)N[C@H](C(=O)N[C@@H](CCC(N)=O)C(=O)N[C@H](C(=O)N[C@@H](CCCCN)C(N)=O)[C@@H](C)O)[C@@H](C)CC)[C@@H](C)CC)[C@@H](C)CC)[C@@H](C)O` (some centres not stated), the result in series [4] was inactive. On to `CCCC[C@H](NC(=O)[C@H](CCC(=O)O)NC(=O)[C@H](CC(=O)O)NC(=O)[C@H](CO)NC(=O)[C@H](Cc1ccccc1)NC(=O)[C@H](CO)NC(=O)CNC(=O)[C@H](CC(=O)O)NC(=O)CNC(=O)[C@@H](N)Cc1cnc[nH]1)C(=O)N[C@@H](CC(N)=O)C(=O)N[C@H](C(=O)N[C@H](C(=O)N[C@@H](CC(C)C)C(=O)N[C@@H](CC(=O)O)C(=O)N[C@@H](Cc1cccc2ccccc12)C(=O)N[C@@H](CC(C)C)C(=O)N[C@@H](C)C(=O)N[C@@H](C)C(=O)N[C@@H](CCCNC(=N)N)C(=O)N[C@@H](CC(=O)O)C(=O)N[C@@H](Cc1ccccc1)C(=O)N[C@H](C(=O)N[C@@H](CC(N)=O)C(=O)N[C@@H](Cc1c[nH]c2ccccc12)C(=O)N[C@@H](CC(C)C)C(=O)N[C@H](C(=O)N[C@@H](CCC(N)=O)C(=O)N[C@H](C(=O)N[C@@H](CCCCN)C(N)=O)[C@@H](C)O)[C@@H](C)CC)[C@@H](C)CC)[C@@H](C)CC)[C@@H](C)O`, for which the EC50 in series [1] is 0.19 nM; in series [2], greater than 1000 nM.
